From patent publication US20060258754A1, “Method of treating endothelial dysfunction, oxidative stress and related diseases” (priority 2004, published 2006)
“Also recorded” adds a separate entry of the source.

Tests used:
DNA = conditions: pro-oxidant potential; cited from earlier work
penile corpus cavernosus = test: Rabbit penile corpus cavernosus: relaxation to electrical field stimulation after 60 min incubation; parameters: species or system low dose alloxan-diabetic rabbit; conditions: 1 μM, EFS 2-16 Hz, FIG. 8
Experimental: Male California rabbits, weighing 2-2.5 kg, were provided by the vivarium of the Biomedicine Institute-UFC. Diabetes was induced by intraperitoneal injection of alloxan (150 mg/kg) and only animals with plasma glucose concentration above 200 mg/dl were included in the study. Age-matched euglycemic rabbits were used as controls.
Kidneys and aortic rings were harvested from diabetic rabbits after 3 weeks of alloxan injection. The animals were sacrificed under sodium pentobarbital anesthesia (Hypnol®, 150-200 mg/kg). […]. Rabbit kidneys were obtained from male New Zealand rabbits (1-1.5 kg) after cannulation of the renal artery in situ. [Thereafter the organ is rapidly perfused with warm KHS at 37° C., pH 7.4 and gassed with 95% O2 in 5% CO2 in an open system with a constant flow adjusted to yield 1 mL/g/min and maintained by a peristaltic pump. The alterations in perfusion pressure are continuously recorded in a four-channel polygraph (Narco Biosystems, Houston, Tex., USA) by means of a pressure transducer (P23 Gould Stratham, Oxnard, Calif., USA). After a 30 minute equilibration period, phenylephrine (1 to 5 μM) is infused by means of an infusion pump at a constant rate (0.1 ml/min) in order to achieve a stable perfusion pressure (100-120 mm Hg). Concentration-response curves are performed to the vasodilators, i.e. acetylcholine (Ach; 10^-9 to 10^-3 M). Drugs are injected as a 50 μL bolus, previously shown not to effect perfusion pressure in an arm side just above the cannula in the renal artery.] Following penectomy, the corpus cavernosum was dissected in Krebs solution and cleared of the tunica albuginea and surrounding tissues. Strips (2 cm) were mounted vertically in isometric baths (5 mL) in Krebs-Henseleit solution (37° C., pH 7.4 gassed with 95% O2 in 5% CO2) enriched with indomethecin (10 μM) and guanethedine (10 μM) in order to avoid prostanoid or neuronal norandrenergic interaction. After a 60 minute period for stabilization, tissues were precontracted with 10 μM phenylephrine in order to increase the basal tonus. Thereafter, frequency response curves to transmural electrical field stimulations (EFS—square wave pulses: 10 s train; 20 V, 0.5 ms, 2-16 Hz) were performed until two stable reproducible curves were attained. Then, frequency response curves were repeated after 60 min incubation with saline or 1 μM pinitol, DCI or db-DCI in the alloxan-diabetic rabbits. They are perfused with KHS containing 1 μM D-chiro-inositol, pinitol, dibutyryl D-chiro-inositol, myo-inositol or saline for 60 min. Dose response curves for acetylcholine are then performed following prior phenylephrine vasoconstriction as described. At least 6 separate experiments were performed each in duplicate.

[1] = tested on: ROS generated by xanthine/xanthine oxidase; test: Superoxide assay in vitro: xanthine/xanthine oxidase, NBT reduction; format: biochemical; conditions: low micromolar concentrations, FIG. 10
Experimental: Superoxide radicals were generated by the reaction of xanthine (1 mM) and xanthine oxidase ([…]) in air-saturated potassium phosphate buffer (pH 7.8 at 25° C.). Superoxide anions were detected by nitroblue tetrazolium (NBT—50 μM) which undergoes reduction by O2-. to its formazan. The rate of reduction was monitored spectrophotometrically at 560 nm with an Ultrospec 1000 (Pharmacia Biotech, Cambridge, England). SOD-1, by scavanging O2-. Diminishes the rate of reduction of NBT. The volume was fixed at 2 mL. Each experiment was run in duplicate.

vascular mesenteric bed = test: Rat arteriolar mesenteric bed: acetylcholine-evoked decrease in perfusion pressure after 4-week oral treatment; format: in vivo, alloxan-diabetic male Wistar rats; conditions: chronic (4-week) oral administration, highest acetyl choline concentrations, FIG. 4
Experimental: Male Wistar rats, weighing between 230-250 g, fed regular chow, with free access to water were separated in four groups (n=10/each). The first two groups, termed normoglycemic, were treated with saline (0.1 mL/100 g/12 h) by the oral route (intragastric gavage) or untreated for four weeks. The second two groups, hyperglycemic, were treated with saline (0.1 mL/100 g/12 h) or treated with D-chiro-inositol (20 mg/kg/12 h) under the same protocol. […] Diabetes was induced by a single intravenous injection of 45 mg/kg alloxan as described by Sannomiya et al., 1997 ( ). Diabetes was diagnosed 96 h after injection by blood glucose assay >200 mg/dL. All protocols were approved by the local committee and follow the Guide for the Care and Use of Laboratory Animals published by the US National Institutes of Health (NIH Publication No. 85-23, revised 1996).
The mesentery was carefully removed by cutting close to the intestinal border with a small scissors. […] The vascular bed was rapidly perfused with warm KHS (37° C.; pH 7.4; gassed with 95% O2 in 5% CO2) in an open system with a constant flow of 4 ml/min maintained with a peristaltic pump. Alterations in perfusion pressure were continuously recorded in a four-channel polygraph (Narco Biosystems, Houston, Tex., USA) by means of a pressure transducer (P23 Gould Stratham, Oxnard, Calif., USA). After a 30 minute equilibration period, phenylephrine (1 to 5 μM) was infused by means of an infusion pump at a constant rate (0.1 ml/min) in order to achieve a stable perfusion pressure (100-120 mm Hg). Dose response curves were performed with vasodilators, i.e. acetylcholine (Ach; 10^-9 to 10^-3 M). Drugs were injected as 50 μL boluses, previously shown not to effect perfusion pressure in a side arm just above the cannula in the mesenteric artery. At least 6 separate experiments were performed each in duplicate.

aortic rings = test: Rat aortic thoracic rings: acetylcholine relaxation after phenylephrine contraction, 4-week oral treatment; format: in vivo, alloxan-diabetic male Wistar rats; conditions: chronic oral administration, acetylcholine 10^-7 M, FIG. 3
Experimental: Male Wistar rats, weighing between 230-250 g, fed regular chow, with free access to water were separated in four groups (n=10/each). The first two groups, termed normoglycemic, were treated with saline (0.1 mL/100 g/12 h) by the oral route (intragastric gavage) or untreated for four weeks. The second two groups, hyperglycemic, were treated with saline (0.1 mL/100 g/12 h) or treated with D-chiro-inositol (20 mg/kg/12 h) under the same protocol. […] Diabetes was induced by a single intravenous injection of 45 mg/kg alloxan as described by Sannomiya et al., 1997 ( ). Diabetes was diagnosed 96 h after injection by blood glucose assay >200 mg/dL. All protocols were approved by the local committee and follow the Guide for the Care and Use of Laboratory Animals published by the US National Institutes of Health (NIH Publication No. 85-23, revised 1996). After completion of blood pressure measurements and vascular mesenteric bed collection, animals were sacrificed by exsanguination while under anesthesia. The thoracic aorta was excised and rapidly cleansed of connective tissue in Petri dishes containing warmed and gassed (95% O2 in 5% CO2) Krebs-Henseleit solution (KHS). The aorta segment was cut in small rings (≈5 mm) and mounted horizontally in 5 mL chambers for isometric recording of tension. The resting tension was adjusted to 1 g and the tissue allowed to equilibrate for 1 hour with a 15 min washout period. Tissues were kept in KHS at 37° C., gassed with the O2, CO2 mixture and isometric recordings made with a force displacement transducer connected to a four-channel polygraph (Narco Biosystems, Houston, Tex., USA). After the equilibration period, tissues were contracted with a submaximal concentration of phenylephrine (≈60% maximal response) until two similar responses were obtained in order to ensure reproducibility of the contraction curves. […] The acetylcholine dose response curve was repeated after a 60 min washout interval. All experiments were performed in the presence of indomethecin (10 μM) and guanethidine (10 μM) to prevent the production of vasoactive prostanoids. At least 6 separate experiments will be performed each in duplicate.

[2] = tested on: human erythrocytes and human cataractous lenses; conditions: cited from earlier work

Compound	oxidative DNA damage (DNA)	reduction of ROS generated by xanthine/xanthine oxidase [1]	effect on microvascular endothelial dysfunction (vascular mesenteric bed)	effect on macrovascular endothelial dysfunction at intermediate acetylcholine concentration (aortic rings)	further results
CC(=O)N[C@@H](CS)C(=O)O [N-acetylcysteine]	cause oxidative DNA damage	–	–	–	–
Vitamin A	cause oxidative DNA damage	–	–	–	–
O=P(O)(O)O[C@H]1[C@H](OP(=O)(O)O)[C@@H](OP(=O)(O)O)[C@H](OP(=O)(O)O)[C@@H](OP(=O)(O)O)[C@H]1OP(=O)(O)O [Phytic acid, Myoinositol hexaphosphate]	does not cause oxidative DNA damage even at high concentrations	–	–	–	–
CO[C@H]1[C@H](O)[C@@H](O)[C@@H](O)[C@H](O)[C@@H]1O [pinitol]	–	equally effective; also recorded: reduced ROS in a low micromolar concentration dependant manner	approximately equally effective	followed by DCI, pinitol and myoinositol in descending order of effect; also recorded: active at intermediate acetyl choline concentrations	restoration of vasorelaxant effect of electrical stimulation of the pudendal nerve (penile corpus cavernosus): restoration of vasorelaxant effect
O[C@H]1[C@H](O)[C@@H](O)[C@H](O)[C@@H](O)[C@H]1O [myoinositol, reference compound]	–	reduced ROS in a low micromolar concentration dependant manner	perhaps slightly better than pinitol and DCI	followed by DCI, pinitol and myoinositol in descending order of effect	reduction of ROS generated by xanthine/xanthine oxidase ([1]; listed as myo-inositol): equally effective; effect on microvascular endothelial dysfunction (vascular mesenteric bed; listed as myo-inositol): perhaps slightly better than pinitol and D-chiro-inositol; peroxidation effect of hydrogen peroxide [2]: decrease the peroxidation effect of hydrogen peroxide; effect on macrovascular endothelial dysfunction at intermediate acetylcholine concentration (aortic rings; listed as myo-inositol): active at intermediate acetyl choline concentrations
O=c1c(O)c(-c2ccc(O)c(O)c2)oc2cc(O)cc(O)c12 [quercetin]	cause oxidative DNA damage	–	–	–	–
